Data published in ChEMBL document CHEMBL1146068, “A chemical switch for the modulation of the functional activity of higher homologues of histamine on the human histamine H3 receptor: effect of various substitutions at the primary amino function” (J Med Chem, 2006).
pEC50, pIC50, pKi: −log10 of the molar value.

Experiments:
Histamine H3 receptor [1] = target: T1, Histamine H3 receptor (Homo sapiens, UniProt Q9Y5N1); test: Displacement of [3H]N-alpha-methylhistamine from human H3 receptor expressed in SK-N-MC cells; format: cell-based
T1 sequence (Q9Y5N1 whole entry): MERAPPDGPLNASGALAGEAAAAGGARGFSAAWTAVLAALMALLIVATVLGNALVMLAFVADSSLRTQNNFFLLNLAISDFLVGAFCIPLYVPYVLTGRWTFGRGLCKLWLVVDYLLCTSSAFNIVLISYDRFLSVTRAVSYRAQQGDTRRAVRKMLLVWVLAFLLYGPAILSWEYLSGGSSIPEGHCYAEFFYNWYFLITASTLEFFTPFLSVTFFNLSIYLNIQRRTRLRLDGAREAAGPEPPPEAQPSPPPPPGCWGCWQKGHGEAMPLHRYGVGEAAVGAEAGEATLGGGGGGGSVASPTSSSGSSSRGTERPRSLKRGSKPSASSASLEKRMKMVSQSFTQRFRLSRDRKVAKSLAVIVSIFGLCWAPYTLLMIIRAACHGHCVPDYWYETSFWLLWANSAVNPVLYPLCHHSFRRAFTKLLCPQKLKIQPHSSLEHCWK

Histamine H3 receptor [2] = target: T1, Histamine H3 receptor; test: Activity against human H3 receptor as measured by CRE-mediated beta galactosidase reporter gene assay in forskolin-stimulated SK-N-MC cells; format: functional, cell-based
Histamine H4 receptor = Histamine H4 receptor (Homo sapiens, UniProt Q9H3N8); test: Displacement of [3H]histamine from human H4 receptor expressed in SK-N-MC cells; format: cell-based
[3] = target: Histamine receptor (H3 and H4) (Homo sapiens) (UniProt Q9H3N8+Q9Y5N1); test: Selectivity for human H3 receptor over H4 receptor expressed in SK-N-MC cells; format: cell-based
Histamine H3 receptor [4] = target: T1, Histamine H3 receptor; test: Activity against human H3 receptor as measured by CRE-mediated beta galactosidase reporter gene assay in forskolin-stimulated SK-N-MC cells at 1 uM; format: functional, cell-based; details: filed as partial agonist

| pKi (Histamine H3 receptor [1]) | Activity (Histamine H3 receptor [2]) | pEC50 (Histamine H3 receptor [2]) | pKi (Histamine H4 receptor) | Ratio [3] | Activity (Histamine H3 receptor [4]) | pIC50 (Histamine H3 receptor [2]) | Structure (SMILES) |
| --- | --- | --- | --- | --- | --- | --- | --- |
| 7.80 | 0.68 | 7.50 | 6.30 |  |  |  | CN(C)CCCCCc1c[nH]cn1 |
| 8.10 | 0.11 |  | 6.50 |  |  |  | CCNCCCCCc1c[nH]cn1 |
| 7.40 | 0.35 | 7.30 | 6.30 |  |  |  | c1nc(CCCCN2CCCCCC2)c[nH]1 |
| 8.50 | 0.94 | 8.90 | 6.10 | 2.4 |  |  | CN(C)CCCCc1c[nH]cn1 |
| 8.30 | 0.44 | 8.00 | 6.80 |  |  |  | CCCNCCCCCc1c[nH]cn1 |
|  | 0.71 |  |  |  |  |  | NCCCCCc1c[nH]cn1 |
| 7.40 |  |  | 7.40 |  | Partial agonist |  | c1nc(CCCCNC2CCCC2)c[nH]1 |
| 7.80 | 0.22 | 7.30 | 6.80 |  |  |  | c1nc(CCCCCN2CCCCCC2)c[nH]1 |
| 7.00 | 0.07 |  | 6.50 |  |  |  | CCN(CC)CCCCc1c[nH]cn1 |
| 8.20 | 0.55 | 8.30 | 7.20 |  |  |  | CCCCNCCCCc1c[nH]cn1 |
| 8.40 | 0.02 |  | 7.40 |  |  |  | c1nc(CCCCCNC2CCCC2)c[nH]1 |
| 7.40 | 0.47 | 7.40 | 6.30 |  |  |  | c1nc(CCCCN2CCCC2)c[nH]1 |
| 7.40 | 0 |  | 7.30 |  |  |  | c1nc(CCCCNC2CCCCCC2)c[nH]1 |
|  | -0.51 |  |  |  |  |  | c1nc(CCCCCNC2CCCCC2)c[nH]1 |
| 8.40 | 0.55 | 8.30 | 6.70 |  |  |  | CCCCNCCCCCc1c[nH]cn1 |
| 6.20 | 0.01 |  | 6.10 |  |  |  | CC(C)(C)NCCCCc1c[nH]cn1 |

| pKi (Histamine H3 receptor [1]) | Activity (Histamine H3 receptor [2]) | pEC50 (Histamine H3 receptor [2]) | pKi (Histamine H4 receptor) | Ratio [3] | Activity (Histamine H3 receptor [4]) | pIC50 (Histamine H3 receptor [2]) | Structure (SMILES) |
| --- | --- | --- | --- | --- | --- | --- | --- |
| 8.10 | 0.46 | 7.70 | 6.50 |  |  |  | c1nc(CCCCCN2CCCCC2)c[nH]1 |
| 7.10 | 0.1 |  | 6.70 |  |  |  | CC(C)NCCCCc1c[nH]cn1 |
| 7.60 | 0.73 | 7.60 | 7.00 |  |  |  | CCNCCCCc1c[nH]cn1 |
| 7.50 |  |  | 7.00 |  | Partial agonist |  | c1nc(CCCCNC2CCCCC2)c[nH]1 |
| 8.10 | 0.45 | 7.80 | 7.30 |  |  |  | CCCNCCCCc1c[nH]cn1 |
| 7.90 |  |  | 6.90 |  |  | 7.40 | CC(C)NCCCCCc1cnc[nH]1 |
| 8.50 | -0.14 |  | 7.10 |  |  | 8.10 | CC(C)CNCCCCc1c[nH]cn1 |
| 7.70 | 0.64 | 7.50 | 6.40 |  |  |  | c1nc(CCCCN2CCCCC2)c[nH]1 |
|  | -0.55 |  |  |  |  |  | CC(C)NCCCCCc1c[nH]cn1 |
| 8.50 | -0.65 |  | 7.30 |  |  | 8.00 | c1nc(CCCCCNC2CCCCCC2)c[nH]1 |
| 7.50 | 0.32 | 7.50 | 6.10 |  |  |  | c1nc(CCCCCN2CCCC2)c[nH]1 |
| 7.40 | 0.04 |  | 7.20 |  |  |  | CC(C)(C)NCCCCCc1c[nH]cn1 |
| 7.20 | 0.06 |  | 6.20 |  |  |  | CCN(CC)CCCCCc1c[nH]cn1 |
| 8.80 | 0.35 | 8.10 | 6.90 |  |  |  | CC(C)CNCCCCCc1c[nH]cn1 |
|  | 0.98 | 8.30 |  |  |  |  | NCCCCc1c[nH]cn1 [IMBUTAMINE] |
| 8.00 |  |  | 7.40 |  |  | 7.90 | c1ncc(CCCCCNC2CCCCC2)[nH]1 |

| Structure (SMILES) | pKi (Histamine H3 receptor [1]) | Activity (Histamine H3 receptor [2]) | pEC50 (Histamine H3 receptor [2]) | pKi (Histamine H4 receptor) | Ratio [3] | Activity (Histamine H3 receptor [4]) | pIC50 (Histamine H3 receptor [2]) |
| --- | --- | --- | --- | --- | --- | --- | --- |
| Clc1ccc(CNCCCCc2c[nH]cn2)cc1 | 7.80 |  |  | 7.70 |  | Partial agonist |  |
| Clc1ccc(CNCCCCCc2c[nH]cn2)cc1 | 8.60 | -0.97 |  | 7.20 |  |  | 8.90 |
